According to patent US20250144067A1, “PERSONALIZED STARVATION THERAPY FOR CANCER” (Faeth Therapeutics, Inc., priority 2021, published 2025):
Where a name gives a salt, the structure may show the parent alone. Read-outs that look alike come from different tables or passages of the source.

Tests used:
[1] = system: NCI-H292 lung cancer cells; test: FDA drug screening, complete media vs cholesterol-free media with simvastatin (TABLE 2); format: cell-based, human
[2] = system: NCI-H292 lung cancer cells; test: FDA drug screening, complete media vs cholesterol-free media without statin (TABLE 1); format: cell-based, human
[3] = Complete minus Cholesterol-free, […]
[4] = NCI-H292 cells in cholesterol-free media without statin
[5] = NCI-H292 cells in complete media
[6] = NCI-H292 cells, FDA library drug in cholesterol-free media with simvastatin 0.04 μM
[7] = NCI-H292 cells, FDA library drug in complete media
[8] = complete media vs cholesterol-free media + simvastatin (0.04 μM), >0 enhanced anti-cancer activity, about 0 neutral, <0 antagonist
[9] = NCI-H292 cells, FDA drug library screen, complete media
[10] = NCI-H292 cells, cholesterol-free media without statin
[11] = complete vs cholesterol-free media, greater than 0 enhanced anti-cancer activity, about 0 neutral, below 0 antagonists
[12] = NCI-H292 cells, FDA drug library screen, cholesterol-free media with simvastatin 0.04 μM
[13] = complete media minus cholesterol-free media + simvastatin, >0 enhanced anti-cancer activity, about 0 neutral, <0 antagonist
[14] = Complete minus Cholesterol-free, greater than 0 enhanced anti-cancer activity, about 0 neutral, below 0 antagonists
[15] = NCI-H292 cells, cholesterol-free media with simvastatin 0.04 μM, FDA drug library screen (TABLE 2)
[16] = NCI-H292 cells, complete media, FDA drug library screen (TABLE 2)
[17] = complete media minus cholesterol-free media + simvastatin (0.04 μM), >0 enhanced anti-cancer activity, about 0 neutral, <0 antagonist

For `CCCSc1ccc2nc(NC(=O)OC)[nH]c2c1` [Albendazole], the “Cholesterol-free media + simvastatin (0.04 μM)” value [1] was 1.236, the “Complete Media” value [1] was 0.9882 and the Difference [1] was −0.25. It also gave a Cholesterol-free [2] of 0.9001, a Complete [2] of 0.9862 and a Difference [2] of 0.09.
With `OC[C@H]1NC[C@H](O)[C@@H](O)[C@H]1O` [Migalastat (hydrochloride)] the “Cholesterol-free media + simvastatin (0.04 μM)” value ([1]; NCI-H292 cells, cholesterol-free media with simvastatin 0.04 μM, […]) was 0.7275, the “Complete Media” value ([1]; NCI-H292 cells, complete media, […]) was 0.7465 and the Difference ([1]; complete media minus cholesterol-free media + simvastatin, […]) was 0.02. The Difference [2, 3] was −0.53, the Cholesterol-free [2, 4] was 1.45 and the Complete [2, 5] was 0.9162.
In the case of `Cc1cc(N2CCN([C@@H]3CN[C@H](C(=O)N4CCSC4)C3)CC2)n(-c2ccccc2)n1` [Teneligliptin (hydrobromide)], the “Cholesterol-free media + simvastatin (0.04 μM)” value [1, 6] is reported as 1.564, the “Complete Media” value [1, 7] is reported as 1.115 and the Difference ([1]; complete media vs cholesterol-free media + simvastatin (0.04 μM), […]) is reported as −0.45. For the same molecule, the Difference [2, 3] was −0.56, the Cholesterol-free [2, 4] was 1.45 and the Complete [2, 5] was 0.8858.
`CNCc1cc(-c2ccccc2F)n(S(=O)(=O)c2cccnc2)c1` [Vonoprazan] was tested, and the “Cholesterol-free media + simvastatin (0.04 μM)” value [1, 6] was 1.249, the “Complete Media” value [1, 7] was 0.8473 and the Difference [1, 8] was −0.40. For the same molecule, the Difference ([2]; Complete minus Cholesterol-free, greater than 0 enhanced anti-cancer activity, about 0 neutral, below 0 antagonist) was −0.07, the Cholesterol-free ([2]; NCI-H292 cells, FDA drug library screen, cholesterol-free media without statin) was 1.105 and the Complete [2, 9] was 1.031.
With `C[C@H](O)C(=O)O` [L-Lactic acid] the “Cholesterol-free media + simvastatin (0.04 μM)” value ([1]; NCI-H292 cells, drug in cholesterol-free media with simvastatin 0.04 μM) was 1.063, the “Complete Media” value ([1]; NCI-H292 cells, drug in complete media) was 0.8704 and the Difference [1, 8] was −0.19. The Cholesterol-free [2, 10] was 1.267, the Complete ([2]; NCI-H292 cells, complete media) was 0.8145 and the Difference [2, 11] was −0.45.
With `O=C(OC[C@H]1O[C@@H](OC(=O)c2cc(O)c(O)c(OC(=O)c3cc(O)c(O)c(O)c3)c2)[C@H](OC(=O)c2cc(O)c(O)c(OC(=O)c3cc(O)c(O)c(O)c3)c2)[C@@H](OC(=O)c2cc(O)c(O)c(OC(=O)c3cc(O)c(O)c(O)c3)c2)[C@@H]1OC(=O)c1cc(O)c(O)c(OC(=O)c2cc(O)c(O)c(O)c2)c1)c1cc(O)c(O)c(OC(=O)c2cc(O)c(O)c(O)c2)c1` [Tannic acid] the “Cholesterol-free media + simvastatin (0.04 μM)” value [1, 12] was 1.824, the “Complete Media” value [1, 9] was 2.065 and the Difference [1, 13] was 0.24. It also gave a Difference [2, 14] of −0.60, a Cholesterol-free [2, 4] of 1.391 and a Complete [2, 5] of 0.7941.
`NCc1ccc(C(=O)O)cc1` [4-(Aminomethyl)benzoic acid] was tested, and the “Cholesterol-free media + simvastatin (0.04 μM)” value [1, 15] was 1.68, the “Complete Media” value [1, 16] was 1.637 and the Difference [1, 17] was −0.04. The Difference [2, 14] was −0.68, the Cholesterol-free [2, 4] was 1.961 and the Complete [2, 5] was 1.286.
With Diethylcarbamazine (citrate) the “Cholesterol-free media + simvastatin (0.04 μM)” value ([1]; NCI-H292 cells, cholesterol-free media with simvastatin 0.04 μM, cell growth value in FDA drug screen) was 0.703, the “Complete Media” value ([1]; NCI-H292 cells, complete media, cell growth value in FDA drug screen) was 0.7247 and the Difference [1, 13] was 0.02. It also gave a Cholesterol-free [2, 10] of 1.324, a Complete ([2]; NCI-H292 cells, complete media) of 0.9451 and a Difference [2, 11] of −0.38.
In the case of `CCCCCCCCCCCC1=C(O)C(=O)C=C(O)C1=O` [Embelin], the “Cholesterol-free media + simvastatin (0.04 μM)” value [1, 15] is reported as 0.8998, the “Complete Media” value [1, 16] is reported as 0.8298 and the Difference [1, 17] is reported as −0.07. It also gave a Difference [2, 14] of −0.48, a Cholesterol-free [2, 4] of 1.567 and a Complete [2, 5] of 1.082.
`CC1=C(C(=O)O)N2C(=O)[C@@H](NC(=O)[C@H](N)c3ccccc3)[C@H]2SC1` [Cephalexin] was tested, and the “Cholesterol-free media + simvastatin (0.04 μM)” value [1, 6] was 1.341, the “Complete Media” value [1, 7] was 0.9798 and the Difference [1, 8] was −0.36. The Cholesterol-free [2, 10] was 1.173, the Complete ([2]; NCI-H292 cells, complete media) was 0.8408 and the Difference [2, 11] was −0.33.
In the case of `OC(c1cc(C(F)(F)F)nc2c(C(F)(F)F)cccc12)C1CCCCN1` (stereo not drawn) [Mefloquine (hydrochloride)], the “Cholesterol-free media + simvastatin (0.04 μM)” value [1, 12] is reported as 1.137, the “Complete Media” value [1, 9] is reported as 1.057 and the Difference [1, 8] is reported as −0.08. For the same molecule, the Difference [2, 14] was −0.49, the Cholesterol-free [2, 4] was 1.439 and the Complete [2, 5] was 0.9523.
With `O=C1[C@H]2CCCC[C@H]2C(=O)N1CCCCN1CCN(c2nsc3ccccc23)CC1` [Perospirone] the “Cholesterol-free media + simvastatin (0.04 μM)” value [1, 15] was 0.9946, the “Complete Media” value [1, 16] was 0.9329 and the Difference [1, 17] was −0.06. It also gave a Cholesterol-free [2, 10] of 1.046, a Complete ([2]; NCI-H292 cells, complete media) of 0.7154 and a Difference [2, 11] of −0.33.
For `C=CCCCCCCCCC(=O)O` [10-Undecenoic acid (zinc salt)], the “Cholesterol-free media + simvastatin (0.04 μM)” value [1, 6] was 1.561, the “Complete Media” value [1, 7] was 1.235 and the Difference [1, 8] was −0.33. The Difference ([2]; Complete minus Cholesterol-free, >0 enhanced anti-cancer activity, about 0 neutral, <0 antagonist) was −0.19, the Cholesterol-free [2, 10] was 1.263 and the Complete ([2]; NCI-H292 cells, complete media) was 1.076.
In the case of `C/C(=C\C(=O)OCCCCCCCCC(=O)O)C[C@@H]1OC[C@H](C[C@@H]2O[C@H]2[C@@H](C)[C@H](C)O)[C@@H](O)[C@H]1O` [Mupirocin], the “Cholesterol-free media + simvastatin (0.04 μM)” value [1, 6] is reported as 1.454, the “Complete Media” value [1, 7] is reported as 1.069 and the Difference [1, 8] is reported as −0.38. The Cholesterol-free ([2]; NCI-H292 cells, cholesterol-free media without statin, FDA drug library screen) was 0.7089, the Complete ([2]; NCI-H292 cells, complete media, FDA drug library screen) was 1.063 and the Difference ([2]; complete vs cholesterol-free media, >0 enhanced anti-cancer activity, about 0 neutral, <0 antagonist) was 0.35.
